This passage reports IC50 results from ChEMBL document CHEMBL3112435, “1H-1,2,3-Triazole-tethered isatin-7-chloroquinoline and 3-hydroxy-indole-7-chloroquinoline conjugates: synthesis and antimalarial evaluation” (Bioorg Med Chem Lett, 2014).

This assay relates to Plasmodium falciparum. Put plainly: Antimalarial activity against chloroquine-resistant Plasmodium falciparum W2 after 48 hrs by flow cytometry. Type of assay: functional, organism-based. Particulars: W2, 48 h. On the technique in general: In flow cytometry, cells or beads pass a laser one at a time.
The IC50 is the concentration needed to halve the response being measured. A high value points to lower potency. Take `O=C1C(O)c2ccccc2N1CCn1cc(COc2ccc(CNNc3ccnc4cc(Cl)ccc34)cc2)nn1` (configuration not stated): the IC50 was 0.128 µM.
`O=C1C(=O)N(CCCCn2cc(COc3ccc(/C=N/Nc4ccnc5cc(Cl)ccc45)cc3)nn2)c2ccccc21`: the half-maximal inhibitory concentration (IC50) was 0.119 µM.
With `Cc1ccc2c(c1)C(=O)C(=O)N2CCCCn1cc(COc2ccc(/C=N/Nc3ccnc4cc(Cl)ccc34)cc2)nn1` the figure was 0.204 µM; with `O=C1C(O)c2cc(Cl)ccc2N1CCCn1cc(COc2ccc(CNNc3ccnc4cc(Cl)ccc34)cc2)nn1` (configuration not stated), 0.35 µM; with `O=Cc1ccc(OCc2cn(CCCCN3C(=O)C(=O)c4cc(F)ccc43)nn2)cc1`, over 10 µM.
`O=Cc1ccc(OCc2cn(CCN3C(=O)C(=O)c4cc(F)ccc43)nn2)cc1` returned an IC50 of over 10 µM.
With `O=Cc1ccc(OCc2cn(CCN3C(=O)C(=O)c4cc(Cl)ccc43)nn2)cc1` the figure was over 10 µM; with `O=Cc1ccc(OCc2cn(CCCN3C(=O)C(=O)c4cc(Cl)ccc43)nn2)cc1`, over 10 µM; with `O=Cc1ccc(OCc2cn(CCCN3C(=O)C(=O)c4cc(F)ccc43)nn2)cc1`, over 10 µM.
Compound `O=C1C(=O)N(CCn2cc(COc3ccc(/C=N/Nc4ccnc5cc(Cl)ccc45)cc3)nn2)c2ccc(Cl)cc21` returned an IC50 of 0.263 µM.
The same measure for `Cc1ccc2c(c1)C(=O)C(=O)N2CCCn1cc(COc2ccc(/C=N/Nc3ccnc4cc(Cl)ccc34)cc2)nn1`: 0.163 µM.
The same measure for `O=C1C(=O)N(CCCn2cc(COc3ccc(/C=N/Nc4ccnc5cc(Cl)ccc45)cc3)nn2)c2ccccc21`: 0.165 µM.
In turn, `O=C1C(O)c2cc(Cl)ccc2N1CCCCn1cc(COc2ccc(CNNc3ccnc4cc(Cl)ccc34)cc2)nn1` (configuration not stated) showed an IC50 of 0.168 µM.
With `O=C1C(O)c2cc(F)ccc2N1CCn1cc(COc2ccc(CNNc3ccnc4cc(Cl)ccc34)cc2)nn1` (configuration not stated) the figure was 0.112 µM; with `O=Cc1ccc(OCc2cn(CCCN3C(=O)C(=O)c4ccccc43)nn2)cc1`, over 10 µM.
With `Cc1ccc2c(c1)C(O)C(=O)N2CCn1cc(COc2ccc(CNNc3ccnc4cc(Cl)ccc34)cc2)nn1` (configuration not stated) the figure was 0.32 µM; with `Cc1ccc2c(c1)C(O)C(=O)N2CCCCn1cc(COc2ccc(CNNc3ccnc4cc(Cl)ccc34)cc2)nn1` (configuration not stated), 0.326 µM.
`O=C1C(=O)N(CCCCn2cc(COc3ccc(/C=N/Nc4ccnc5cc(Cl)ccc45)cc3)nn2)c2ccc(F)cc21` yielded an IC50 of 0.134 µM.
The same measure for `Cc1ccc2c(c1)C(=O)C(=O)N2CCn1cc(COc2ccc(C=O)cc2)nn1`: over 10 µM.
With `O=Cc1ccc(OCc2cn(CCN3C(=O)C(=O)c4ccccc43)nn2)cc1` the figure was over 10 µM; with `O=C1C(=O)N(CCCn2cc(COc3ccc(/C=N/Nc4ccnc5cc(Cl)ccc45)cc3)nn2)c2ccc(Cl)cc21`, 0.346 µM; with `O=C1C(O)c2cc(F)ccc2N1CCCCn1cc(COc2ccc(CNNc3ccnc4cc(Cl)ccc34)cc2)nn1` (configuration not stated), 0.164 µM.
With `C[C@@H]1CC[C@H]2[C@@H](C)C(=O)O[C@@H]3O[C@@]4(C)CC[C@@H]1[C@]32OO4` [ARTEMISININ] the figure was 0.007 µM.
Turning to `Cc1ccc2c(c1)C(=O)C(=O)N2CCn1cc(COc2ccc(/C=N/Nc3ccnc4cc(Cl)ccc34)cc2)nn1`, the IC50 turned out to be 0.185 µM.
Compound `O=Cc1ccc(OCc2cn(CCCCN3C(=O)C(=O)c4cc(Cl)ccc43)nn2)cc1` had an IC50 of over 10 µM.
The compound `O=C1C(=O)N(CCn2cc(COc3ccc(/C=N/Nc4ccnc5cc(Cl)ccc45)cc3)nn2)c2ccc(F)cc21` yielded an IC50 of 0.19 µM.
For `O=C1C(O)c2cc(Cl)ccc2N1CCn1cc(COc2ccc(CNNc3ccnc4cc(Cl)ccc34)cc2)nn1` (configuration not stated), half-maximal inhibition (IC50) was put at 0.182 µM.
With `O=C1C(O)c2cc(F)ccc2N1CCCn1cc(COc2ccc(CNNc3ccnc4cc(Cl)ccc34)cc2)nn1` (configuration not stated) the figure was 0.206 µM; with `Cc1ccc2c(c1)C(O)C(=O)N2CCCn1cc(COc2ccc(CNNc3ccnc4cc(Cl)ccc34)cc2)nn1` (configuration not stated), 0.509 µM.
The same measure for `O=Cc1ccc(OCc2cn(CCCCN3C(=O)C(=O)c4ccccc43)nn2)cc1`: over 10 µM; for `O=C1C(=O)N(CCCCn2cc(COc3ccc(/C=N/Nc4ccnc5cc(Cl)ccc45)cc3)nn2)c2ccc(Cl)cc21`: 0.141 µM; for `O=C1C(O)c2ccccc2N1CCCCn1cc(COc2ccc(CNNc3ccnc4cc(Cl)ccc34)cc2)nn1` (configuration not stated): 0.069 µM.
Take `O=C1C(O)c2ccccc2N1CCCn1cc(COc2ccc(CNNc3ccnc4cc(Cl)ccc34)cc2)nn1` (configuration not stated): half-maximal inhibition (IC50) required 0.339 µM.
The same measure for `O=C1C(=O)N(CCCn2cc(COc3ccc(/C=N/Nc4ccnc5cc(Cl)ccc45)cc3)nn2)c2ccc(F)cc21`: 0.288 µM.
With `O=C1C(=O)N(CCn2cc(COc3ccc(/C=N/Nc4ccnc5cc(Cl)ccc45)cc3)nn2)c2ccccc21` the figure was 0.118 µM; with `Cc1ccc2c(c1)C(=O)C(=O)N2CCCn1cc(COc2ccc(C=O)cc2)nn1`, over 10 µM.
Turning to `Cc1ccc2c(c1)C(=O)C(=O)N2CCCCn1cc(COc2ccc(C=O)cc2)nn1`, 6.42 µM corresponded to half-maximal inhibition (IC50).
